Data set [1] deals with Sprague-Dawley rats. As to the kind of experiment: Rat loss of righting reflexes. The conditions noted are these: intravenous, dose producing LORR in 50% of rats.
Data set [2] relates to Sprague-Dawley rats. Particulars: previously published value; cited from earlier work.
For data set [3] the following is noted: previously published value; cited from earlier work.
Data set [4] deals with α1(L264T)β3γ2 GABAA receptors (Homo sapiens, UniProt P14867+P28472, L291T). The data set is classed as cell-based. The conditions noted are these: for Peak amplitude of evoked current: representative trace, single oocyte.
Sequence of α1(L264T)β3γ2 GABAA receptors (P14867 28-456 L291T): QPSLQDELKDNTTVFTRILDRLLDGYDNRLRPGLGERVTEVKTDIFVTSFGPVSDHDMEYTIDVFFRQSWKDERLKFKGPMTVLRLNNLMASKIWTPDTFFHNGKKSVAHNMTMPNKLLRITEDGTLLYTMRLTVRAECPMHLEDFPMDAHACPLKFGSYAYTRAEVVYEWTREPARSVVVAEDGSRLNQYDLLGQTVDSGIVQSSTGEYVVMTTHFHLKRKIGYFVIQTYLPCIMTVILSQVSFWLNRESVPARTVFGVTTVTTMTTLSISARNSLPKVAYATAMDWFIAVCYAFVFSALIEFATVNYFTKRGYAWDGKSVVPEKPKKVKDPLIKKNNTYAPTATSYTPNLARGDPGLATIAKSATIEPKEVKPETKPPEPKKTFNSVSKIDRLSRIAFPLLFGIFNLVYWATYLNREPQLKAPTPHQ
Sequence of α1(L264T)β3γ2 GABAA receptors (P28472 26-473): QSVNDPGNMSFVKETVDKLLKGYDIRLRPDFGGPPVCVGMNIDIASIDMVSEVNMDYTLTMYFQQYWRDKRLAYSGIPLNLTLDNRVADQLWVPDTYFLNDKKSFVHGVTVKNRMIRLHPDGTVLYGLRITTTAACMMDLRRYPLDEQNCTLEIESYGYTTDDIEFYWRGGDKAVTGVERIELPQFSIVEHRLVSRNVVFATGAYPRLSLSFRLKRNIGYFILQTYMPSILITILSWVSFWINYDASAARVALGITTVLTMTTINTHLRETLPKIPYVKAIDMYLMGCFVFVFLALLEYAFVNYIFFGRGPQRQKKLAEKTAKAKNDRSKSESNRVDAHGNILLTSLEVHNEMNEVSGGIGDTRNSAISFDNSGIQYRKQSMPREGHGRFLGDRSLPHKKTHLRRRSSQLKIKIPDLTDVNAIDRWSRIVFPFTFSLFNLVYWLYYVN
Sequence of α1(L264T)β3γ2 GABAA receptors (P18507 40-475 partner): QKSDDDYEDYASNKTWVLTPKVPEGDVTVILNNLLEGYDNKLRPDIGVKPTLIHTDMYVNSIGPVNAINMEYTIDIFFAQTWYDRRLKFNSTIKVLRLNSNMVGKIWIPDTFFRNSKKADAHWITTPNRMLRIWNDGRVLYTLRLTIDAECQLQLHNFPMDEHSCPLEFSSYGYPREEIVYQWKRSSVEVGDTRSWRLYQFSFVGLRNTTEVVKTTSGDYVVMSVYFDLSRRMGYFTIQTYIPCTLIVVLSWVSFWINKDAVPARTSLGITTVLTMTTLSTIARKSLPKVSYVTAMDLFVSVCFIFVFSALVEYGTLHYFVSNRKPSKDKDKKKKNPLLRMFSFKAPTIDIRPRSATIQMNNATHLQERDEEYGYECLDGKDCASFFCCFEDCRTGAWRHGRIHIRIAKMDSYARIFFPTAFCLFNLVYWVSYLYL
Data set [5] in a line: Octanol:water partition coefficient determination. The data set is classed as physicochemical. Particulars: mean ± SD.

Read-outs that look alike come from different tables or passages of the source.

For the molecule 4-Pyridine carboetomidate [Compound 7], the “Hypnotic ED50 (loss of righting reflexes)” value in data set [1] came out at 25.0 ± 0.3 mg/kg.
`CCOC(=O)c1cncn1[C@H](C)c1ccccc1` [Compound 1, Etomidate, reference compound]: the “Hypnotic ED50 (loss of righting reflexes)” value in data set [2] is recorded as 0.47 ± 0.17 (13) mg/kg. The “Octanol:Buffer Partition Coefficient” value in data set [3] is reported as 731 ± 72 (13).
Broadly, the EC50 is the midpoint of the concentration-response curve. In the case of `COC(=O)c1cncn1C(C)c1ccccc1` (centres unmarked) [Compound 2, Metomidate, reference compound], the half-maximal effective concentration (EC50) in data set [4] came out at 4.4 ± 0.7 µM. Moreover, in data set [5], the “Octanol:Buffer Partition Coefficient” value was 380 ± 48.
Consider `CCOC(=O)c1cncn1[C@@H](C)c1ccccc1` [Compound 3, S-etomidate], for which the “Hypnotic ED50 (loss of righting reflexes)” value in data set [2] is 5.2 ± 0.9 (13) mg/kg. Further, the “Octanol:Buffer Partition Coefficient” value in data set [3] is reported as 711 ± 90 (13).
On to `CCOC(=O)c1cncn1Cc1ccccc1` [Compound 4, Dihydrogen etomidate], for which the “Hypnotic ED50 (loss of righting reflexes)” value in data set [2] is given as 5.2 ± 1 (13) mg/kg. Besides, in data set [3], the “Octanol:Buffer Partition Coefficient” value is recorded as 388 ± 32 (13).
`CCOC(=O)c1cncn1C1(c2ccccc2)CC1` [Compound 5, Cyclopropyletomidate]: the “Hypnotic ED50 (loss of righting reflexes)” value in data set [2] is recorded as 5.2 ± 0.7 (13) mg/kg. The “Octanol:Buffer Partition Coefficient” value in data set [3] is on record as 458 ± 45 (13).
Consider `CCOC(=O)c1cccn1[C@H](C)c1ccccc1` [Compound 6, Carboetomidate], for which, in data set [4] (fold higher GABAA receptor potency), the “Potency relative to 4-pyridine carboetomidate” value was 24 fold. Moreover, the “GABAA receptors activated at the highest concentration studied (at most)” value in data set [4] (normalized to 100 μM GABA, limited by aqueous solubility) is listed as at most 68 ± 6%. The “Potency for directly activating GABAA receptors relative to etomidate” value in data set [4] (ratio of EC50s) is reported as “approximately 1/8”. Also, in data set [2], the “Hypnotic ED50 (loss of righting reflexes)” value is 7.7 ± 0.8 (18) mg/kg. For the same molecule, the “Octanol:Buffer Partition Coefficient” value in data set [3] is reported as 15,000 ± 3,700 (20).
With `COC(=O)COC(=O)c1cncn1[C@H](C)c1ccccc1` [Compound 11, Methoxycarbonyl metomidate], the “Hypnotic ED50 (loss of righting reflexes)” value in data set [2] is 11.1 ± 0.8 (19) mg/kg. In data set [3], the “Octanol:Buffer Partition Coefficient” value was 159 ± 15 (19).
On to `COC(=O)[C@H](C)OC(=O)c1cncn1[C@H](C)c1ccccc1` [Compound 12, S-methyl-methoxycarbonyl metomidate], for which, in data set [2], the “Hypnotic ED50 (loss of righting reflexes)” value was 3.5 ± 0.4 (19) mg/kg. Besides, the “Octanol:Buffer Partition Coefficient” value in data set [3] is 330 ± 16 (19).
Regarding `COC(=O)[C@@H](C)OC(=O)c1cncn1[C@H](C)c1ccccc1` [Compound 13, R-methyl-methoxycarbonyl metomidate], the “Hypnotic ED50 (loss of righting reflexes)” value in data set [2] is on record as 9.6 ± 1.9 (19) mg/kg. Further, in data set [3], the “Octanol:Buffer Partition Coefficient” value is recorded as 380 ± 15 (19).
Turning to `COC(=O)C(C)(C)OC(=O)c1cncn1[C@H](C)c1ccccc1` [Compound 14, Dimethyl-methoxycarbonyl metomidate], the “Hypnotic ED50 (loss of righting reflexes)” value in data set [2] is on record as 0.72 ± 0.16 (19) mg/kg. In addition, the “Octanol:Buffer Partition Coefficient” value in data set [3] was 660 ± 110 (19).
Regarding `COC(=O)CCOC(=O)c1cncn1[C@H](c1ccccc1)C(C)C` [Compound 16, (S)-isopropyl-methoxycarbonyl metomidate], the “Peak amplitude of evoked current” value was 0.29 μA in data set [4] (1 μM) and 0.90 μA in data set [4] (10 μM). Further, the “Hypnotic ED50 (loss of righting reflexes)” value in data set [2] is listed as 1.2 ± 0.2 (19) mg/kg. In addition, the “Octanol:Buffer Partition Coefficient” value in data set [3] is 2,860 ± 67 (19).
With `COC(=O)CCOC(=O)c1cncn1[C@@H](c1ccccc1)C(C)C` [Compound 17, (R)-isopropyl-methoxycarbonyl metomidate], in data set [4] (1 μM), the “Peak amplitude of evoked current” value is reported as 0.041 μA. In addition, in data set [2], the “Hypnotic ED50 (loss of righting reflexes)” value is given as 3.6 ± 0.8 (19) mg/kg. Besides, the “Octanol:Buffer Partition Coefficient” value in data set [3] was 3,830 ± 310 (19).
As for `COC(=O)CCOC(=O)c1cncn1[C@H](C)c1ccccc1` [Compound 18, Methoxycarbonyl etomidate], the “Hypnotic ED50 (loss of righting reflexes)” value in data set [2] is listed as 5.3 ± 1.5 (19) mg/kg. Besides, the “Octanol:Buffer Partition Coefficient” value in data set [3] is on record as 190 ± 25 (19).
Turning to `COC(=O)[C@@H](C)COC(=O)c1cncn1[C@H](C)c1ccccc1` [Compound 19, α-(S)-methyl methoxycarbonyl etomidate], the “Hypnotic ED50 (loss of righting reflexes)” value in data set [2] was 3.1 ± 0.4 (19) mg/kg. Besides, in data set [3], the “Octanol:Buffer Partition Coefficient” value was 530 ± 170 (19).
`COC(=O)[C@H](C)COC(=O)c1cncn1[C@H](C)c1ccccc1` [Compound 20, α-(R)-methyl-methoxycarbonyl etomidate]: in data set [2], the “Hypnotic ED50 (loss of righting reflexes)” value is listed as 5.2 ± 0.5 (19) mg/kg. Besides, the “Octanol:Buffer Partition Coefficient” value in data set [3] is on record as 670 ± 120 (19).
Turning to `COC(=O)C(C)(C)COC(=O)c1cncn1[C@H](C)c1ccccc1` [Compound 21, α-Dimethyl-methoxycarbonyl etomidate], in data set [2], the “Hypnotic ED50 (loss of righting reflexes)” value was 2.4 ± 1 (19) mg/kg. In data set [3], the “Octanol:Buffer Partition Coefficient” value is given as 2,240 ± 150 (19).
As for `COC(=O)C[C@@H](C)OC(=O)c1cncn1[C@H](C)c1ccccc1` [Compound 22, β-(R)-methyl-methoxycarbonyl etomidate], in data set [2], the “Hypnotic ED50 (loss of righting reflexes)” value is 3.5 ± 0.6 (19) mg/kg. In addition, the “Octanol:Buffer Partition Coefficient” value in data set [3] is on record as 500 ± 24 (19).
For the molecule `COC(=O)CC(C)(C)OC(=O)c1cncn1C(C)c1ccccc1` (stereo not drawn) [Compound 23, β-Dimethyl-methoxycarbonyl etomidate], in data set [2], the “Hypnotic ED50 (loss of righting reflexes)” value is 1.9 ± 0.3 (19) mg/kg. The “Octanol:Buffer Partition Coefficient” value in data set [3] is reported as 1,580 ± 40 (19).
“Cyclopropyl methoxycarbonyl metomidate [Compound 15]”: the “Hypnotic ED50 (loss of righting reflexes)” value in data set [2] was 0.69 ± 0.04 (19) mg/kg. Besides, the “Octanol:Buffer Partition Coefficient” value in data set [3] is listed as 420 ± 11 (19).
In the case of “Racemic pentafluoroetomidate [Compound 8]”, the “Octanol:Buffer Partition Coefficient” value in data set [5] is recorded as 860 ± 260. Also, in data set [1], the “Hypnotic ED50 (loss of righting reflexes)” value is 1.7 ± 0.4 mg/kg.
Take S-pentafluoroetomidate [Compound 9]: in data set [4] (fold higher EC50), the “EC50 of S-enantiomer relative to racemic mixture” value was 22 fold. Also, the “Octanol:Buffer Partition Coefficient” value in data set [5] was 880 ± 220. Besides, in data set [1], the “Hypnotic ED50 (loss of righting reflexes)” value came to 11.1 ± 0.8 mg/kg.
